Reference: ChEMBL document CHEMBL1201861, “Genomics of Drug Sensitity in Cancer screening data, Wellcome Trust Sanger Institute”

Tests used:
Assay in all cases: cells
COLO-684 = assay type: functional, cell-based; details: Homo sapiens
Description: SANGER: Inhibition of human COLO-684 cell growth in a cell viability assay.

TGBC24TKB = assay type: functional, cell-based, Homo sapiens; details: Homo sapiens, TGBC24TKB;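 further: growth inhibition of human TGBC24TKB cells, read out with a cell viability assay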
Description: SANGER: Inhibition of human TGBC24TKB cell growth in a cell viability assay.

MV4-11 = assay type: functional, cell-based, MV-4-11; details: Homo sapiens;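 further: cell viability readout measuring growth inhibition of human MV-4-11 cells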
Description: SANGER: Inhibition of human MV-4-11 cell growth in a cell viability assay.

J-RT3-T3-5 = assay type: functional, cell-based; details: Homo sapiens;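 further: cell viability assay measuring growth inhibition of human J-RT3-T3-5 cells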
Description: SANGER: Inhibition of human J-RT3-T3-5 cell growth in a cell viability assay.

AU565 = assay type: functional, cell-based, Homo sapiens; details: Homo sapiens, AU565;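 further: cell viability assay measuring growth inhibition of human AU565 cells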
Description: SANGER: Inhibition of human AU565 cell growth in a cell viability assay.

SNU1 = assay type: functional, cell-based; details: Homo sapiens;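 further: growth inhibition of human NCI-SNU-1 cells, measured with a cell viability assay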
Description: SANGER: Inhibition of human NCI-SNU-1 cell growth in a cell viability assay.

KNS-42 = assay type: functional, cell-based, Homo sapiens; details: Homo sapiens, KNS-42;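 further: growth inhibition of KNS-42 cells, read out with a cell viability assay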
Description: SANGER: Inhibition of human KNS-42 cell growth in a cell viability assay.

K562 = assay type: functional, cell-based; details: Homo sapiens
Description: SANGER: Inhibition of human K-562 cell growth in a cell viability assay.

BXPC-3 = assay type: functional, cell-based, Homo sapiens; details: Homo sapiens, BXPC-3;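 further: growth inhibition of human BxPC-3 cells, read out by a cell viability assay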
Description: SANGER: Inhibition of human BxPC-3 cell growth in a cell viability assay.

KYSE-70 cell line = assay type: functional, cell-based, Homo sapiens; details: Homo sapiens, KYSE-70;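 further: cell viability assay read-out, with IC50 expressing suppression of KYSE-70 cell growth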
Description: SANGER: Inhibition of human KYSE-70 cell growth in a cell viability assay.

LXF-289 cell line = assay type: functional, cell-based, Homo sapiens; details: Homo sapiens, LXF-289
Description: SANGER: Inhibition of human LXF-289 cell growth in a cell viability assay.

DJM-1 = assay type: functional, cell-based, Homo sapiens; details: Homo sapiens, DJM-1;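 further: growth inhibition of human DJM-1 cells, read out by a cell viability assay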
Description: SANGER: Inhibition of human DJM-1 cell growth in a cell viability assay.

NB17 = assay type: functional, cell-based; details: Homo sapiens;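 further: growth inhibition of NB17 cells, read out with a cell viability assay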
Description: SANGER: Inhibition of human NB17 cell growth in a cell viability assay.

GAMG = assay type: functional, cell-based, Homo sapiens; details: Homo sapiens, GAMG;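 further: cell growth inhibition measured by a viability assay in the GAMG human cell line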
Description: SANGER: Inhibition of human GAMG cell growth in a cell viability assay.

SK-MEL-24 = assay type: functional, cell-based; details: Homo sapiens;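 further: growth inhibition read out by a cell viability assay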
Description: SANGER: Inhibition of human SK-MEL-24 cell growth in a cell viability assay.

A2780 = assay type: functional, cell-based, Homo sapiens; details: Homo sapiens, A2780;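 further: growth inhibition of A2780 cells, read out with a cell viability assay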
Description: SANGER: Inhibition of human A2780 cell growth in a cell viability assay.

RCM-1 = assay type: functional, cell-based, Homo sapiens; details: Homo sapiens, RCM-1;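 further: growth inhibition of the RCM-1 line, determined with a cell viability readout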
Description: SANGER: Inhibition of human RCM-1 cell growth in a cell viability assay.

HT-1376 = assay type: functional, cell-based, Homo sapiens; details: Homo sapiens, HT-1376
Description: SANGER: Inhibition of human HT-1376 cell growth in a cell viability assay.

SK-N-AS = assay type: functional, cell-based, Homo sapiens; details: Homo sapiens, SK-N-AS;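 further: growth inhibition of human SK-N-AS cells, measured with a cell viability assay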
Description: SANGER: Inhibition of human SK-N-AS cell growth in a cell viability assay.

CAL-51 = assay type: functional, cell-based, Homo sapiens; details: Homo sapiens, CAL-51;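 further: human CAL-51 cell line, growth inhibition read out via a cell viability assay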
Description: SANGER: Inhibition of human CAL-51 cell growth in a cell viability assay.

L-363 = assay type: functional, cell-based; details: Homo sapiens
Description: SANGER: Inhibition of human L-363 cell growth in a cell viability assay.

C-33-A = assay type: functional, cell-based, Homo sapiens; details: Homo sapiens, C-33-A;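 further: cell viability assay measuring growth inhibition of C-33-A cells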
Description: SANGER: Inhibition of human C-33-A cell growth in a cell viability assay.

DMS-79 = assay type: functional, cell-based; details: Homo sapiens;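 further: growth inhibition measured with a cell viability assay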
Description: SANGER: Inhibition of human DMS-79 cell growth in a cell viability assay.

HOS = assay type: functional, cell-based, Homo sapiens; details: Homo sapiens, HOS;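 further: growth inhibition of human HOS cells, read out with a cell viability assay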
Description: SANGER: Inhibition of human HOS cell growth in a cell viability assay.

BB30-HNC = assay type: functional, cell-based, Homo sapiens; details: Homo sapiens, BB30-HNC;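 further: growth inhibition of the cultured cell line, read out by a cell viability assay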
Description: SANGER: Inhibition of human BB30-HNC cell growth in a cell viability assay.

A3-KAW = assay type: functional, cell-based; details: Homo sapiens;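 further: growth inhibition of human A3-KAW cells, read out with a cell viability assay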
Description: SANGER: Inhibition of human A3-KAW cell growth in a cell viability assay.

NCI-H2087 = assay type: functional, cell-based, Homo sapiens; details: Homo sapiens, NCI-H2087;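 further: growth inhibition determined with a cell viability readout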
Description: SANGER: Inhibition of human NCI-H2087 cell growth in a cell viability assay.

SK-N-DZ = assay type: functional, cell-based, Homo sapiens; details: Homo sapiens, SK-N-DZ;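 further: growth inhibition of the cancer cell line, read out through a viability assay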
Description: SANGER: Inhibition of human SK-N-DZ cell growth in a cell viability assay.

HEC-1 = assay type: functional, cell-based, Homo sapiens; details: Homo sapiens, HEC-1;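 further: growth inhibition of the cell line, read out with a cell viability assay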
Description: SANGER: Inhibition of human HEC-1 cell growth in a cell viability assay.

CP50-MEL-B = assay type: functional, cell-based, Homo sapiens; details: Homo sapiens, CP50-MEL-B;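 further: growth inhibition of the human cell line, measured with a cell viability read-out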
Description: SANGER: Inhibition of human CP50-MEL-B cell growth in a cell viability assay.

DSH1 = assay type: functional, cell-based, Homo sapiens; details: Homo sapiens, DSH1;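 further: growth inhibition of human DSH1 cells, measured with a cell viability readout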
Description: SANGER: Inhibition of human DSH1 cell growth in a cell viability assay.

OCI-AML2 = assay type: functional, cell-based; details: Homo sapiens;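 further: growth inhibition of OCI-AML2 cells, read out with a cell viability assay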
Description: SANGER: Inhibition of human OCI-AML2 cell growth in a cell viability assay.

SW872 = assay type: functional, cell-based, Homo sapiens; details: Homo sapiens, SW872;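 further: growth inhibition of SW872 cells, read out by a viability assay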
Description: SANGER: Inhibition of human SW872 cell growth in a cell viability assay.

C3A = assay type: functional, cell-based, Homo sapiens; details: Homo sapiens, C3A;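 further: growth inhibition of C3A human cells, quantified with a cell viability readout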
Description: SANGER: Inhibition of human C3A cell growth in a cell viability assay.

D-502MG = assay type: functional, cell-based, Homo sapiens; details: Homo sapiens, D-502MG
Description: SANGER: Inhibition of human D-502MG cell growth in a cell viability assay.

MDA-MB-415 = assay type: functional, cell-based; details: Homo sapiens
OCUB-M = assay type: functional, cell-based, Homo sapiens; details: Homo sapiens, OCUB-M;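 further: growth inhibition of the cancer cell line, read out through a cell viability assay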
Description: SANGER: Inhibition of human OCUB-M cell growth in a cell viability assay.

HCC1395 = assay type: functional, cell-based, Homo sapiens; details: Homo sapiens, HCC1395;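 further: growth inhibition of HCC1395 cells, read out by a cell viability assay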
Description: SANGER: Inhibition of human HCC1395 cell growth in a cell viability assay.

NCI-H650 = assay type: functional, cell-based, Homo sapiens; details: Homo sapiens, NCI-H650;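 further: growth inhibition of NCI-H650 cells, read out by a viability assay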
Description: SANGER: Inhibition of human NCI-H650 cell growth in a cell viability assay.

IGROV-1 = assay type: functional, cell-based, Homo sapiens; details: Homo sapiens, IGROV-1;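 further: reduction of IGROV-1 cell growth, read out with a viability assay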
Description: SANGER: Inhibition of human IGROV-1 cell growth in a cell viability assay.

UMC-11 = assay type: functional, cell-based, Homo sapiens; details: Homo sapiens, UMC-11;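 further: growth inhibition of UMC-11 cells, read out with a cell viability assay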
Description: SANGER: Inhibition of human UMC-11 cell growth in a cell viability assay.

S-117 = assay type: functional, cell-based, Homo sapiens; details: Homo sapiens, S-117
Description: SANGER: Inhibition of human S-117 cell growth in a cell viability assay.

NCI-H2452 = assay type: functional, cell-based, Homo sapiens; details: Homo sapiens, NCI-H2452;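 further: growth inhibition of NCI-H2452 cells, read out with a cell viability assay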
Description: SANGER: Inhibition of human NCI-H2452 cell growth in a cell viability assay.

CWR22R = assay type: functional, cell-based, Homo sapiens; details: Homo sapiens, 22Rv1;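 further: growth inhibition of 22Rv1 cells, read out with a cell viability assay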
Description: SANGER: Inhibition of human 22RV1 cell growth in a cell viability assay.

RPMI-2650 = assay type: functional, cell-based, Homo sapiens; details: Homo sapiens, RPMI-2650
Description: SANGER: Inhibition of human RPMI-2650 cell growth in a cell viability assay.

Ramos-2G6-4C10 = assay type: functional, cell-based; details: Homo sapiens;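 further: growth inhibition of the cell line, measured by a cell viability read-out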
Description: SANGER: Inhibition of human Ramos-2G6-4C10 cell growth in a cell viability assay.

EM-2 = assay type: functional, cell-based; details: Homo sapiens;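 further: growth inhibition of EM-2 cells, read out with a cell viability assay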
Description: SANGER: Inhibition of human EM-2 cell growth in a cell viability assay.

KP-4 = assay type: functional, cell-based, Homo sapiens; details: Homo sapiens, KP-4;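 further: human KP-4 cells, with growth inhibition read out through a cell viability assay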
Description: SANGER: Inhibition of human KP-4 cell growth in a cell viability assay.

SW1463 = assay type: functional, cell-based, Homo sapiens; details: Homo sapiens, SW1463;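 further: growth inhibition of SW1463 cells, determined with a cell viability assay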
Description: SANGER: Inhibition of human SW1463 cell growth in a cell viability assay.

MMAC-SF = assay type: functional, cell-based, Homo sapiens; details: Homo sapiens, MMAC-SF;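 further: growth inhibition of human MMAC-SF cells, read out with a cell viability assay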
Description: SANGER: Inhibition of human MMAC-SF cell growth in a cell viability assay.

NCI-H2126 = assay type: functional, cell-based, Homo sapiens; details: Homo sapiens, NCI-H2126;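 further: growth inhibition of the cancer cell line, determined with a cell viability readout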
Description: SANGER: Inhibition of human NCI-H2126 cell growth in a cell viability assay.

HO-1-N-1 = assay type: functional, cell-based, Homo sapiens; details: Homo sapiens, HO-1-N-1;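 further: growth inhibition of human HO-1-N-1 cells, read out with a cell viability assay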
Description: SANGER: Inhibition of human HO-1-N-1 cell growth in a cell viability assay.

SMILES: CC(=O)O[C@@]12CO[C@@H]1C[C@H](O)[C@@]1(C)C(=O)[C@H](O)C3=C(C)[C@@H](OC(=O)[C@H](O)[C@@H](NC(=O)OC(C)(C)C)c4ccccc4)C[C@@](O)([C@@H](OC(=O)c4ccccc4)[C@H]21)C3(C)C [DOCETAXEL]
- IC50 (COLO-684): > 10 nM
- IC50 (TGBC24TKB): 7.81 nM
- IC50 (MV4-11): 1.74 nM
- IC50 (J-RT3-T3-5): 2.35 nM
- IC50 (AU565): 1.81 nM
- IC50 (SNU1): 1.97 nM
- IC50 (KNS-42): 4.12 nM
- IC50 (K562): > 10 nM
- IC50 (BXPC-3): 2.51 nM
- IC50 (KYSE-70 cell line): 6.24 nM
- IC50 (LXF-289 cell line): 0.758 nM
- IC50 (DJM-1): > 10 nM
- IC50 (NB17): 1.89 nM
- IC50 (GAMG): 0.416 nM
- IC50 (SK-MEL-24): > 10 nM
- IC50 (A2780): 3.35 nM
- IC50 (RCM-1): > 10 nM
- IC50 (HT-1376): > 10 nM
- IC50 (SK-N-AS): 5.35 nM
- IC50 (CAL-51): 2.71 nM
- IC50 (L-363): 3.76 nM
- IC50 (C-33-A): 2.66 nM
- IC50 (DMS-79): > 10 nM
- IC50 (HOS): 0.782 nM
- IC50 (BB30-HNC): 1.05 nM
- IC50 (A3-KAW): > 10 nM
- IC50 (NCI-H2087): 7.48 nM
- IC50 (SK-N-DZ): 9.83 nM
- IC50 (HEC-1): 3.03 nM
- IC50 (CP50-MEL-B): 6.93 nM
- IC50 (DSH1): > 10 nM
- IC50 (OCI-AML2): > 10 nM
- IC50 (SW872): > 10 nM
- IC50 (C3A): > 10 nM
- IC50 (D-502MG): 4.1 nM
- IC50 (MDA-MB-415): 2.74 nM
- IC50 (OCUB-M): 4.38 nM
- IC50 (HCC1395): > 10 nM
- IC50 (NCI-H650): 2.25 nM
- IC50 (IGROV-1): > 10 nM
- IC50 (UMC-11): > 10 nM
- IC50 (S-117): 4.86 nM
- IC50 (NCI-H2452): 2.16 nM
- IC50 (CWR22R): 3.15 nM
- IC50 (RPMI-2650): 2.46 nM
- IC50 (Ramos-2G6-4C10): > 10 nM
- IC50 (EM-2): 6.23 nM
- IC50 (KP-4): 1.56 nM
- IC50 (SW1463): > 10 nM
- IC50 (MMAC-SF): 5.86 nM
- IC50 (NCI-H2126): 7.73 nM
- IC50 (HO-1-N-1): 0.281 nM
